Results as given in paper PMC11211886 (Frontiers in Pharmacology, 2024).

Columns and labels:
BCRP = target: T1, BCRP (Homo sapiens, UniProt Q9UNQ0); test: in vitro; conditions: human
T1 sequence (Q9UNQ0 1-655): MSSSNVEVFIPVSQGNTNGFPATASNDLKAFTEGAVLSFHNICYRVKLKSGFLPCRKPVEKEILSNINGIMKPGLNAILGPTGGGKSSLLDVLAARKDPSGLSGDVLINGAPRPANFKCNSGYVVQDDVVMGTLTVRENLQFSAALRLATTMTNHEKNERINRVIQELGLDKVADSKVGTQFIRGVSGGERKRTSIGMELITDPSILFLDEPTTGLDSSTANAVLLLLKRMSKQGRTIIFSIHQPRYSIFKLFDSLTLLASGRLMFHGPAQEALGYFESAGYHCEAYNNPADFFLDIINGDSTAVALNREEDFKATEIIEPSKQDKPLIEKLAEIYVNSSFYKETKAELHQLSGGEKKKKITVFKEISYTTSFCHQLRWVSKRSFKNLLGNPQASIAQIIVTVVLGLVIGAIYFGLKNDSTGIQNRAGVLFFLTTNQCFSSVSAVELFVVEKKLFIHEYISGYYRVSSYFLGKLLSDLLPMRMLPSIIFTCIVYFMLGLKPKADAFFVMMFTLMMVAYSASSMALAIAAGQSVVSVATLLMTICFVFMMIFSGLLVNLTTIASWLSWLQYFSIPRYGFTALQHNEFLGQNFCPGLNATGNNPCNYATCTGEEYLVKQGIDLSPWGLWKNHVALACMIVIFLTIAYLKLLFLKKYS
From the text: (§1) The experimental conditions were similar to those of the permeability study.

P-gp = P-gp (Homo sapiens, UniProt P08183); test: P-gp inhibition, digoxin transport across Caco-2 monolayers
Chain of P-gp (P08183 whole entry): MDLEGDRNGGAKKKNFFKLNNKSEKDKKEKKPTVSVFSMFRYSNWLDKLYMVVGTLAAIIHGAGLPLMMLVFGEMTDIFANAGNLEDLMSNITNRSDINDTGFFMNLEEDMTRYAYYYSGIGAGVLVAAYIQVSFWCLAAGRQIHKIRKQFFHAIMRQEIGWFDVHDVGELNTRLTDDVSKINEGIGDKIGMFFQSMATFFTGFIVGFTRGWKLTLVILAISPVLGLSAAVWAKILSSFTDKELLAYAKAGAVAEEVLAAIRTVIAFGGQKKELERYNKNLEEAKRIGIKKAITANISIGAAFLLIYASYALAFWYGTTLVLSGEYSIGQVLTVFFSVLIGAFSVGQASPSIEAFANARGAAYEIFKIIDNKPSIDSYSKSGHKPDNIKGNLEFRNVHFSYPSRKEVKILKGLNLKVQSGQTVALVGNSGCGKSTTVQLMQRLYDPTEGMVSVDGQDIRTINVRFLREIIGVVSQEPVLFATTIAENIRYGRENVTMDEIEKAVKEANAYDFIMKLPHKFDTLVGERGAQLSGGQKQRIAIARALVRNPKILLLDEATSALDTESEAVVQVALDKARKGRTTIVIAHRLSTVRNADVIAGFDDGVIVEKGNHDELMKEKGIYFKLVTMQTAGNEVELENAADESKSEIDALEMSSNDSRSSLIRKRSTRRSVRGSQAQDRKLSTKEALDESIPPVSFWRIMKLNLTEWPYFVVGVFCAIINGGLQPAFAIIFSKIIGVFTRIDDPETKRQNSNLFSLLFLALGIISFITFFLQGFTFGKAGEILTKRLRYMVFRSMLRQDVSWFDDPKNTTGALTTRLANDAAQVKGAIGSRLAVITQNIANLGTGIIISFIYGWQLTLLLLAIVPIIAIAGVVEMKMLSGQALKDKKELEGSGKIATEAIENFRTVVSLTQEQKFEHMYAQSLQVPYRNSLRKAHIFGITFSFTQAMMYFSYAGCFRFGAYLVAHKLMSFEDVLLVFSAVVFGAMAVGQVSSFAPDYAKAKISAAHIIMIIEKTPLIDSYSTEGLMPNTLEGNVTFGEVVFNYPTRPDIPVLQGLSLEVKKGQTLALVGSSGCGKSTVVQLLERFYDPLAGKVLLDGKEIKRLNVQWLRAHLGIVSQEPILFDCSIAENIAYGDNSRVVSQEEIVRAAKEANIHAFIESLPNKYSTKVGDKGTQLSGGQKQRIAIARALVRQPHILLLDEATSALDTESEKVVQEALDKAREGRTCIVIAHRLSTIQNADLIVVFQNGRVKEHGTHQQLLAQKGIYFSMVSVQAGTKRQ
From the text: as §1

[1] = Whole blood-to-plasma partition, human blood; type: in vitro ADME
Method: The whole blood and plasma samples were incubated at 37°C for up to 1 h. Serial samples (150 µL) were collected at different time points (0, 10, and 60 min) and transferred into new tubes. The whole blood samples were then centrifuged at 1700 g for 15 min to harvest plasma.

CYP1A2 = test: CYP induction in human hepatocytes, CYP1A2 enzyme activity
Method: […] […] […] Enzyme activity for each CYP isoform was reported as a fold change over vehicle control and the percent of positive control (detailed calculation in Supplementary 1.1). Hepatocytes were harvested with a lysis buffer from RNeasy 96 Kit (Qiagen Inc., Germantown, MD, USA) to isolate RNA, which was analyzed by real-time quantitative polymerase chain reaction (RT-PCR). […] Emax (the maximal observed induction) and EC50 (the concentration that supports half-maximal induction) were estimated by non-linear regression of fold increase in CYP mRNA expression versus concentration plots.
The fold of vehicle control and the percent of positive control were calculated with the formulas below:
Fold of vehicle control = CYPs activity of test compound (or positive control) treated sample / CYPs activity of vehicle control treated sample
% of positive control = [(fold change in treated sample)-1] / [(fold change in positive control)-1] × 100
Based on the enzyme activity, a minimum of 2-fold increase compared to vehicle control for the positive control and ≥40% of the positive control for the test article was considered as the cutoff for a positive signal in in vitro induction assay.

SMILES: C[C@H](Nc1ncnc(N)c1C#N)c1cc2ncc(Cl)n2nc1-c1ccccc1 [Amdizalisib]
- inhibition at 60 min, 0.1 µM (BCRP): 28.5%
- inhibition at 60 min, 0.5 µM (BCRP): 34.2%
- inhibition at 60 min, 2 µM (BCRP): 21.3%
- inhibition at 60 min, 5 µM (BCRP): 24.2%
- inhibition at 60 min, 10 µM (BCRP): 43.6%
- inhibition at 60 min, 40 µM (BCRP): 52.9%
- inhibition at 60 min, 60 µM (BCRP): 66.4%
- inhibition at 60 min, 80 µM (BCRP): 52%
- IC50 (P-gp): 22.9 µM
- inhibition at 60 min, 0.5 µM (P-gp; human): -3.22%
- inhibition at 60 min, 2 µM (P-gp; human): 1.75%
- inhibition at 60 min, 5 µM (P-gp; human): 17%
- inhibition at 60 min, 20 µM (P-gp; human): 46.5%
- inhibition at 60 min, 40 µM (P-gp; human): 58.4%
- inhibition at 60 min, 60 µM (P-gp; human): 75.9%
- inhibition at 60 min, 80 µM (P-gp; human): 83.6%
- fuB ([1]; human blood, 0 min): 11.7%
- RB ([1]; human, 0 min, 1 µM): 0.615
- fup ([1]; human, 1 µM): 0.0720
- RB ([1]; human, 10 min, 1 μM): 0.680
- fuB ([1]; human, 10 min, 1 μM): 10.6%
- RB ([1]; human, 60 min, 1 μM): 0.797
- fuB ([1]; human, 60 min, 1 μM): 9.02%
- Enzyme activity Percent of PC (%) (CYP1A2; CYP1A2, donor seven, 1 µM): 1.00%
- Enzyme activity Percent of PC (%) (CYP1A2; CYP1A2, donor seven, 3 µM): -12.5%
- Enzyme activity Percent of PC (%) (CYP1A2; CYP1A2, donor seven, 10 µM): 16.5%
- Enzyme activity Percent of PC (%) (CYP1A2; CYP1A2, donor seven, 20 µM): 9.00%
- Enzyme activity Percent of PC (%) (CYP1A2; CYP1A2, donor seven, 30 µM): 16.6%
- Enzyme activity Percent of PC (%) (CYP1A2; CYP1A2, donor six, 1 µM): 2.40%
- Enzyme activity Percent of PC (%) (CYP1A2; CYP1A2, donor six, 3 µM): 3.90%
- Enzyme activity Percent of PC (%) (CYP1A2; CYP1A2, donor six, 10 µM): 7.60%
- Enzyme activity Percent of PC (%) (CYP1A2; CYP1A2, donor six, 20 µM): 14.9%
- Enzyme activity Percent of PC (%) (CYP1A2; CYP1A2, donor six, 30 µM): 7.30%
- Enzyme activity Percent of PC (%) (CYP1A2; CYP1A2, donor two, 1 µM): 1.50%
- Enzyme activity Percent of PC (%) (CYP1A2; CYP1A2, donor two, 3 µM): 0.30%
- Enzyme activity Percent of PC (%) (CYP1A2; CYP1A2, donor two, 10 µM): 7.30%
- Enzyme activity Percent of PC (%) (CYP1A2; CYP1A2, donor two, 20 µM): 8.90%
- Enzyme activity Percent of PC (%) (CYP1A2; CYP1A2, donor two, 30 µM): 14.6%
- induction of CYP1A2 enzyme activity (CYP1A2; up to 30.0 µM, all three donors): not considered an inducer
